Source: paper PMC5732813, “Novel piplartine-containing ruthenium complexes: synthesis, cell growth inhibition, apoptosis induction and ROS production on HCT116 cells” (Oncotarget, 2017)
Values joined by “and” are separate entries in the source; they are usually repeats but may differ in a detail not shown here. Equal entries are not always repeated.

Tests used:
Format in all cases: cell-based
HCT116 cells = assay: Gene expression analysis by qPCR array (TaqMan Array Human Molecular Mechanisms of Cancer); settings: HCT116, 12 h; DOX 1 μM, PL 10 μM, 1 2.5 μM, 2 5 μM; negative control RQ = 1.0
In short: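 Gene expression was read by qPCR on a cancer-mechanism TaqMan array after cDNA synthesis from total RNA, using GAPDH, 18S and HPRT1 as reference genes. RNA came from HCT116 cells plated at 7x10^4 cells/mL and treated with the complexes for 12 h.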

[1] = system: HepG2 (human hepatocellular carcinoma); assay: Cytotoxic activity, alamar blue assay, HepG2
Excerpt: (§1) HCT116 (human colon carcinoma), HepG2 (human hepatocellular carcinoma), HSC-3 (human oral squamous cell carcinoma), SCC-4 (human oral squamous cell carcinoma), SCC-9 (human oral squamous cell carcinoma), HL-60 (human promyelocytic leukemia), K-562 (human chronic myelogenous leukemia), B16-F10 (murine melanoma), MRC-5 (human lung fibroblast), WT SV40 MEF (wild-type immortalized mouse embryonic fibroblast) and BAD KO SV40 MEF (BAD gene knockout immortalized mouse embryonic fibroblast) cell lines were obtained from the American Type Culture Collection (ATCC, Manassas, VA, USA) and cultured in RPMI-1640 medium (Gibco-BRL, Gaithersburg, MD, USA) with 10% fetal bovine serum (Life, Carlsbad, CA, USA), 2 mM L-glutamine (Vetec Química Fina, Duque de Caxias, RJ, Brazil) and 50 μg/mL gentamycin (Life, Carlsbad, CA, USA). Adherent cells were collected by treatment with 0.25% trypsin EDTA solution (Gibco-BRL, Gaithersburg, MD, USA). All cell lines were cultured in flasks at 37°C in 5% CO2 and sub-cultured every 3-4 days to maintain exponential growth.
(§2) Cell viability was quantified using the alamar blue assay, according to Ahmed et al.. Cells were inserted in 96-well plates for all experiments (7 x 10^4 cells/mL for adherent cells or 3 x 10^5 cells/mL for suspended cells in 100 μL of medium). […] Negative controls received the vehicle that was used for diluting the compounds tested.

[2] = system: BAD KO SV40 MEF (BAD gene knockout immortalized mouse embryonic fibroblast); assay: Cytotoxic activity, alamar blue assay, BAD KO SV40 MEF; settings: BAD KO SV40 MEF, 72 h incubation, alamar blue; read-out: IC50
[3] = system: WT SV40 MEF (wild-type immortalized mouse embryonic fibroblast); assay: Cytotoxic activity, alamar blue assay, WT SV40 MEF; settings: WT SV40 MEF, 72 h incubation, alamar blue; read-out: IC50
[4] = system: K-562 (human chronic myelogenous leukemia); assay: Cytotoxic activity, alamar blue assay, K-562
Excerpt: as §1, §2

[5] = system: SCC-9 (human oral squamous cell carcinoma); assay: Cytotoxic activity, alamar blue assay, SCC-9

## [Ru(piplartine)(dppf)(bipy)](PF6)2 [Complex 1]
HCT116 cells
  RQ ABL1: 1.302
  RQ AKT1: 1.469
  RQ AKT2: 1.663
  RQ APC: 0.972
  RQ BAX: 1.572
  RQ BCAR1: 1.687
  RQ BCL2: 2.4 and 2.367
  RQ BCL2L1: 1.936
  RQ BCL2L11: 1.710
  RQ BID: 0.743
  RQ BRAF: 1.072
  RQ CASP8: 1.583
  RQ CCND1: 1.2 and 1.153
  RQ CCND3: 1.447
  RQ CCNE1: 1.075
  RQ CDC42: 1.755
  RQ CDH1: 3.7 and 3.659
  RQ CDK2: 1.467
  RQ CDK4: 1.390
  RQ CDKN1A: 1.331
  RQ CDKN1B: 1.039
  RQ CDKN2A: 2.5 and 2.469
  RQ CRK: 1.184
  RQ CTNNB1: 1.131
  RQ CYCS: 2.0 and 1.961
  RQ DVL1: 1.576
  RQ E2F1: 1.631
  RQ EGFR: 1.3 and 1.294
  RQ ELK1: 1.275
  RQ ERBB2: 1.941
  RQ FADD: 0.6 and 0.556
  RQ FAS: 1.496
  RQ FGF2: 1.120
  RQ FN1: 3.8 and 3.841
  RQ FOS: 11.9 and 11.943
  RQ FYN: 2.5 and 2.474
  RQ FZD1: 2.3 and 2.253
  RQ GRB2: 0.961
  RQ GSK3B: 1.191
  RQ GUSB: 4.5
  RQ HRAS: 0.777
  RQ IGF1R: 2.3 and 2.283
  RQ ITGA2B: 3.1 and 3.092
  RQ ITGAV: 1.4 and 1.426
  RQ ITGB1: 0.838
  RQ JUN: 3.7 and 3.708
  RQ KDR: 4.4 and 4.404
  RQ KRAS: 0.886
  RQ MAP2K1: 0.8 and 0.822
  RQ MAP3K5: 0.3 and 0.308
  RQ MAPK1: 1.305
  RQ MAPK3: 2.0 and 2.014
  RQ MAPK8: 1.411
  RQ MAPK14: 1.008
  RQ MAX: 3.6 and 3.614
  RQ MDM2: 0.794
  RQ MYC: 1.065
  RQ NFKB1: 1.288
  RQ NFKB2: 1.340
  RQ NFKBIA: 2.0 and 2.007
  RQ NRAS: 1.178
  RQ PIK3CA: 0.880
  RQ PIK3R1: 2.5 and 2.456
  RQ PTEN: 2.0 and 2.037
  RQ PTK2: 1.6 and 1.561
  RQ PTK2B: 2.3 and 2.270
  RQ RAC1: 1.1 and 1.059
  RQ RAF1: 2.0 and 1.951
  RQ RB1: 1.003
  RQ RELA: 1.390
  RQ RHOA: 1.129
  RQ SHC1: 0.4 and 0.436
  RQ SMAD4: 1.4 and 1.409
  RQ SOS1: 1.2 and 1.161
  RQ SPP1: 2.5
  RQ SRC: 1.584
  RQ TGFB1: 0.911
  RQ TGFBR1: 1.324
  RQ TGFBR2: 2.4 and 2.358
  RQ TP53: 3.5 and 3.478
  RQ VEGFA: 1.664
[1]; HepG2, IC50 72h
  more potent than metal-free piplartine: 4 fold
[1]; SI = IC50[MRC-5]/IC50[HepG2]
  Selectivity index (SI): 2.0
[1]; SI = IC50[PBMC]/IC50[HepG2]
  Selectivity index (SI): 1.1
[2]
  IC50: 3200 nM
[3]
  IC50: 2400 nM
[4]; K562, IC50 72h
  more potent than metal-free piplartine: 5 fold
[4]; SI = IC50[MRC-5]/IC50[K-562]
  Selectivity index (SI): 1.0
[4]; SI = IC50[PBMC]/IC50[K-562]
  Selectivity index (SI): 0.5
[5]; SCC9, IC50 72h
  more potent than metal-free piplartine: 4 fold
[5]; SI = IC50[MRC-5]/IC50[SCC-9]
  Selectivity index (SI): 0.8
[5]; SI = IC50[PBMC]/IC50[SCC-9]
  Selectivity index (SI): 0.4
